For data set [1] the following is noted: mouse, in vivo; cited from earlier work.
The next data set deals with L1210 leukemic cells. The note with it: cited from earlier work.
The test system of data set [2] is myelomonocytic WEHI-3B leukemia. The note with it: mouse, in vivo; cited from earlier work.
Data set [3] deals with rat mammary carcinoma SMT-2A. The note with it: alone and in combination with VP-16; cited from earlier work.
The test system of data set [4] is human colorectal cancer xenografts and PSN-1 human pancreatic tumor. The note with it: mouse, in vivo; cited from earlier work.
Another data set deals with L1210 and P388 leukemia. The note with it: mouse, in vivo; cited from earlier work.
Data set [5] deals with M5076 sarcoma and Lewis lung carcinoma. The note with it: mouse, in vivo; cited from earlier work.
Data set [6] has as its system colon 26 carcinoma, M5076 sarcoma, Lewis lung carcinoma, and C-1300 neuroblastoma. The note with it: mouse, in vivo; cited from earlier work.
The next data set deals with HIV-1. The note with it: cited from earlier work.
Another data set in a line: in vivo. The arrangement: species or system Female NIH-Swiss mice. The note with it: mouse, ip, 100 mg/kg. As for the experimental part:
FIG. 7. Mouse serum concentration of AZT following administration of AZT or AZTDP-DL-PTBA Female NIH-Swiss mice weighing 25-30 g were administered i.p. with AZT (100 mg/kg) or AZTDP-DL-PTBA (394 mg/kg, equivalent to 100 mg/kg AZT). Three mice were sacrificed at the designated time (up to 24 hr) and AZT in the serum was analyzed by a HPLC method.
Female NIH-Swiss mice weighing 25-30 g were administered intraperitoneally (i.p.) with 394 mg/kg of AZTDP-DL-PTBA (equivalent to 100 mg/kg AZT). Three mice were sacrificed at the designated time (up to 24 hours) and AZT in the serum was analyzed by an HPLC method. […] The intact conjugate level in the serum was unable to be checked by the HPLC method.

The subject of another data set is herpes simplex. The note with it: cited from earlier work.
The subject of the next data set is respiratory syncytial. The note with it: cited from earlier work.
Data set [7] deals with biosynthesis of phosphatidylinositol, phosphatidylglycerol or diphosphatidylglycerol. The note with it: rat liver subcellular fractions; release of nucleoside 5'-monophosphates; cited from earlier work.

A word on the half-life: it is how long it takes for the measured level to halve. Low readings indicate fast loss, high ones slow loss.

For the molecule `CCCCCCCCCCCCCCCCCCSCC(COP(=O)(O)OP(=O)(O)OC[C@H]1O[C@@H](n2ccc(N)nc2=O)[C@@H](O)[C@@H]1O)OC(=O)CCCCCCCCCCCCCCC` (mixture of isomers) [Cytoros], in data set [1], the “plasma ara-C concentration and intracellular retention of ara-CTP compared to ara-C” value is “more prolonged plasma ara-C concentration and intracellular retention of ara-CTP”. Also, the “cytotoxicity to L1210 leukemic cells compared to normal mouse bone marrow cells” value with L1210 leukemic cells was “selective cytotoxicity to L1210 leukemic cells”. In data set [2], the “efficacy compared with ara-CDP-L-dipalmitin” value is given as “considerably higher efficacy than ara-CDP-L-dipalmitin”. The “primary and lymph node metastasis” value in data set [3] was “markedly retarded both primary and lymph node metastasis”. Besides, in [4], the antitumor activity entry is on record as “strong antitumor activity”. Further, the “effectiveness among ara-C conjugates tested” value with L1210 and P388 leukemia was “the most effective of those tested”. Also, the antimetastatic activity entry in [5] is listed as “displayed antimetastic activity”. Also, the therapeutic activity result in [6] is “rather broad spectrum of therapeutic activity”.
`COCCCCCCCCCCCC(=O)O` [13-Oxamyristic acid, 12-methoxydodecanoic acid]: in the data set on HIV-1, the “effectiveness among myristate analogs” value is given as “the most effective”; the “reverse transcriptase activity, p24 levels, and syncytia formation” value is “concentration-dependent decrease in reverse transcriptase activity, p24 levels, and syncytia formation”.
With `Cc1cn([C@H]2C[C@H](N=[N+]=[N-])[C@@H](CO)O2)c(=O)[nH]c1=O` [AZT, 3'-azido-3'-deoxythymidine, reference compound], the half-life in the data set “in vivo” was 18.6 min.
On to `CCCCCCCCCCCCCCCCCCCCCCO` [Example 1-Docosanol, 1-Docosanol], for which the “herpes simplex viral replication” value in the data set on herpes simplex is “inhibits herpes simplex and respiratory syncytial viral replication”. The “respiratory syncytial viral replication” value in the data set on respiratory syncytial is “inhibits herpes simplex and respiratory syncytial viral replication”.
Consider AZT diphosphate diglyceride [AZTDP-DG], for which the “substitution for CDP-DG in phospholipid biosynthesis” value in data set [7] is reported as “can substitute to varying extents for CDP-DG”.

The record behind these values is US5484911A, “Nucleoside 5'-diphosphate conjugates of ether lipids” (Health Research, Inc., priority 1993, dated 1996).
